Experimental data from patent US12083159B2, “Antibacterial compositions, methods of making and use thereof” (MOREHOUSE SCHOOL OF MEDICINE, priority 2011, dated 2024).
Where no end group is shown, it is not given here.

Assays:
Jurkat = assay type: cell-based; conditions: Jurkat cultures, 12 days
Protocol: Jurkat cultures seeded at low density were grown in the presence of the SMRwt or the SMRmut peptide. A small but consistent aliquot was taken from each culture daily over a period of 12 days. The cells in the aliquot were counted and the cells/ml in the culture calculated to determine culture growth. The data are shown with time on the x-axis and cell number on the y-axis.
Neither peptide cause cell death (data not shown). Using immunoprecipitation with the SMRwt peptide as bait to screen for cellular factors interacting with the SMR domain, a cellular protein Mortalin was co-immunoprecipitated with the SMRwt peptide (FIG. 3). Mortalin, also known as Glucose-regulated protein 75 (GRP75) and Peptide-binding protein 74, is a 679 amino acid long, uninducible member of the heat shock protein 70 family. It has a high degree of identity with other members of the Hsp70 family, including Escherichia coli DnaK.

[1] = tested on: Staphylococcus aureus SCO1; assay: Biofilm formation, crystal violet assay (microtiter plate); assay type: cell-based; conditions: FIG. 14
Protocol: (§1) Biofilm Formation and Measurement Procedures by Crystal Violet Assay: (1) incubate bacteria in agar plate; (2) single colony was transferred to fresh medium and incubated for overnight; (3) cultures were diluted 1:50 into fresh medium and (4) was dispensed into 96 well plate and incubated for overnight; (5) detection of bacteria growth ability, the OD at 600 nm was determined by the SpectraMax M5 Microplate Reader (6) washed by 1× PBS; (7) stained with crystal violet; (8) detection of biofilm, the OD at 570 nm was determined by the SpectraMax M5 Microplate Reader.
(§2) SMR(mut)-CPP (tat) peptide was used as a negative control.
(§3) Bacterial strains evaluated for biofilm formation included (1) the Gram-negative Vibrio cholerae C7258 strain (A. J. Silva et al., J. Bact., 190 (22):7335-7345 (November 2008); J. C. Ayala et al., Genomics data 5, pp. 147-150, (2015)); (2) the Gram-negative Escherichia coli 042 strain (Taxonomy ID: 216592, R. R. Chaudhuri et al, PLOS One, 5(1):e8801 (Jan. 20, 2010), and (3) the Gram-positive Staphylococcus aureus SCO1 strain (ATCC 12228, S. Sarkar et al., PLos One, 10(2):e0117613 (2015). The Vibrio cholerae, Escherichia coli and Staphylococcus aureus strains and plasmids are listed in the references cited in Table 2.
(§4) The Vibrio cholerae, Escherichia coli and Staphylococcus aureus strains were treated with SMRwt-CPP and SMRmut-CPP peptides and screened for inhibition of their biofilm-forming capacity using microtiter plate (MtP) methods (FIGS. 12-14 (crystal violet assays)) and confocal microscopy (FIGS. 15-16 (intensity count on confocal images).

Vibrio cholerae C7258 = assay: as above; assay type: cell-based; conditions: FIG. 12
Protocol: as §1, §2, §3, §4

Escherichia coli 042 = assay: as above; assay type: cell-based; conditions: FIG. 13
Protocol: as §1, §2, §3, §4

V. cholerae C7258 = assay: Biofilm formation, SYTO9 confocal microscopy, ImageJ; assay type: cell-based, Vibrio cholerae; conditions: 24 h static, 18, 36, 72 nM, FIG. 16
Protocol: (§5) Strain V. cholerae C7258 was grown in LB medium at 30° C. to stationary phase. The cultures were diluted 100 fords in fresh medium and biofilm allowed to develop under static conditions for 24 h in Mat Tek glass bottom culture plates. Biofilm formation was stained with SYTO9 and observed by Leico confocal microscopy and three-dimensional (3D) views of V. cholerae and measured using the ImageJ. (A) Confocal images, (B) 3D images, and (C) bar graphs showing the inhibit effect of biofilm formation. Error bars represent the mean±SD of two independent experiments. Asterisks (*) indicate significant differences (p≤0.05) relative to negative control *p<0.01 vs 18 nM, 36 nM and 72 nM SMRwt-CPP peptide treatment. Each value represents the mean of three independent experiments. Error bars denote the standard deviation (STDEV).
as §4

[2] = tested on: Staphylococcus aureus SCO1; assay: as above; assay type: cell-based; conditions: 24 h static, 18, 36, 72 nM, FIG. 15
Protocol: as §5, with “SCO1” for “V. cholerae C7258”, “37°” for “30°”, “S. aureus” for “V. cholerae”, “(18 nM), **p<0.001 (36” for “vs 18”, “nM,” for “nM, 36 nM and”, “nM) in SMR-CPP” for “nM SMRwt-CPP”
as §4

## VGFPVAAVGFPVDYKDDDDK [SMRwt]
Jurkat
  effect on eukaryotic cell growth: no effect on eukaryotic cell growth

## AGFPVAAAGFPVGRKKRRQRRRPPQ [SMRmut-CPP, reference compound]
[1]
  inhibition of biofilm formation: no significant effect
Vibrio cholerae C7258
  inhibition of biofilm formation: no significant effect
Escherichia coli 042
  inhibition of biofilm formation: no significant effect

## AGFPVAAAGFPVDYKDDDDK [SMRmut, reference compound]
Jurkat
  effect on eukaryotic cell growth: no effect on eukaryotic cell growth

## VGFPVAAVGFPVGRKKRRQRRRPPQ [SMRwt-CPP]
V. cholerae C7258
  inhibition of biofilm formation: dose-response inhibition of biofilm formation
[2]
  inhibition of biofilm formation: dose-response inhibition of biofilm formation
[1]
  inhibition of biofilm formation: dose-response inhibition of biofilm formation
Vibrio cholerae C7258
  inhibition of biofilm formation: dose-response inhibition of biofilm formation
Escherichia coli 042
  inhibition of biofilm formation: dose-response inhibition of biofilm formation
